According to patent US3985747A, “Crystalline sesquihydrate of 7-[D-α-amino-α-(p-hydroxyphenyl)acetamido]-3-(1,2,3-triazol- 5-ylthiomethyl)-3-cephem-4-carboxylic acid” (priority 1974, dated 1976):
Converted amounts (≈) assume the structure as drawn. Structures can show the parent of a compound that is named as a salt. Where two headings read alike, the source gives them in different places.

Columns and labels:
D. pneumoniae A9585 = assay: M.I.C. by Tube Dilution; type: cell-based; settings: Streptococcus pneumoniae, at 10^-3 dil'n, + 5% serum, 50% Nutrient Broth - 45% Antibiotic Assay Broth, overnight 37° C.
Str. Pyogenes A9604 = assay: M.I.C. by Tube Dilution; type: cell-based; settings: Streptococcus pyogenes; at 10^-3 dil'n, + 5% serum; 50% Nutrient Broth - 45% Antibiotic Assay Broth; overnight 37° C.
S. aureus Smith A9537 = assay: M.I.C. by Tube Dilution; type: cell-based; settings: Staphylococcus aureus, overnight 37° C.
S. aureus BX1633-2 A9606 = assay: M.I.C. by Tube Dilution; type: cell-based; settings: Staphylococcus aureus, overnight 37° C.
Sal.enteritidis A9531 = assay: M.I.C. by Tube Dilution; type: cell-based; settings: Salmonella enterica
E. coli A9675 = assay: M.I.C. by Tube Dilution; type: cell-based; settings: Escherichia coli
in vivo [1] = assay: in vivo; set-up: species or system mice; settings: mouse, im, 10 mg/kg
Method: Mouse Blood Levels after IM Administration of 10 mg./kg. Dose of BL-S640

[2] = Loss of bioactivity of the solid on storage at elevated temperatures; type: physicochemical; settings: for Loss of bioactivity (potency) on storage: 43800 min
Water solubility = type: physicochemical
physchem = type: physicochemical; settings: for Bioassay: solution pH 7.1, room temperature
From the text: The above components are shaken to form an amber solution having a pH = 7.1. The solution was allowed to stand at room temperature and periodically assayed to determine stability.

bacteria = assay: Antibacterial testing in vitro and in vivo; settings: versus that reported in U.S. application Ser. No. 318,340
[3] = in vivo, po
in vivo [4] = settings: mouse, blood, po, 100 mg/kg
K. pneumoniae A9977 = assay: M.I.C. by Tube Dilution; settings: Klebsiella pneumoniae
Pr. mirabilis A9900 = assay: M.I.C. by Tube Dilution; settings: Proteus mirabilis
Pr. morganii A15153 = assay: M.I.C. by Tube Dilution; settings: Morganella morganii
Ser. marcescens A20019 = assay: M.I.C. by Tube Dilution; settings: Serratia marcescens
Ent. cloacae A9656 = assay: M.I.C. by Tube Dilution; settings: Enterobacter cloacae
Ent. cloacae A9657 = assay: M.I.C. by Tube Dilution; settings: Enterobacter cloacae
Ent. cloacae A9659 = assay: M.I.C. by Tube Dilution; settings: Enterobacter cloacae
[5] = system: S. aureus(methicillin resist) A15097; assay: microbe, parasite or virus in culture; settings: Staphylococcus aureus
E. coli Juhl A15119 = assay: microbe, parasite or virus in culture; settings: Escherichia coli, JUHLA15119
K. pneumoniae A15130 = assay: microbe, parasite or virus in culture; settings: Klebsiella pneumoniae
Ps. aeruginosa A9843A = assay: microbe, parasite or virus in culture; settings: Pseudomonas aeruginosa
[6] = pH 7
[7] = Loss of bound water on drying; type: physicochemical; settings: very mild conditions (air drying 37° - 45° C., 24 hours)
Method: Upon recovery of the crystalline hydrate from the reaction mixture and cooling to room temperature, the hydrate is ordinarily isolated in the form of the crystalline dihydrate. […] […] […] Upon vacuum drying at 56° C. for 24 hours a crystalline hemihydrate is formed having 0.5 moles of bound water per mole of cephalosporin. All of the above-mentioned novel crystalline hydrates are included within the scope of the present invention.

[8] = SMITHA9537, at 10^-4 dilution, + 50% serum
[9] = at 10^-4 dilution, overnight 37° C., read-out: M.I.C.

Compound N[C@@H](C(=O)N[C@@H]1C(=O)N2C(C(=O)O)=C(CSc3c[nH]nn3)CS[C@H]12)c1ccc(O)cc1 [BL-S640 Sesquihydrate, 7-[D-α-amino-α-(p-hydroxyphenyl)acetamido]-3-(1,2,3-triazol-5-ylthiomethyl)-3-cephem-4-carboxylic acid sesquihydrate] has an MIC (D. pneumoniae A9585) of 0.02 µg/mL, an MIC (Str. Pyogenes A9604) of 0.02 µg/mL and an MIC (S. aureus Smith A9537; [8]) of 1 µg/mL. For the same compound, the MIC (S. aureus Smith A9537; SMITHA9537, at 10^-4 dilution, read-out: M.I.C.) was 0.3 µg/mL, the MIC (S. aureus BX1633-2 A9606; BX16332A9606, at 10^-2 dil'n) was 2 µg/mL and the MIC (S. aureus BX1633-2 A9606; BX16332A9606, at 10^-3 dil'n, read-out: M.I.C.) was 0.6 µg/mL. The MIC (Sal.enteritidis A9531; [9]) was 0.6 µg/mL, the MIC (E. coli A9675; [9]) was 4 µg/mL and the concentration at 5 min (in vivo [1]) was 15000 ng/mL. The concentration at 0.5 h (in vivo [1]) was 13500 ng/mL, the concentration at 1 h (in vivo [1]) was 9400 ng/mL and the concentration at 1.5 h (in vivo [1]) was 6800 ng/mL. The degraded at 730 h ([2]; solid, 56° C., 1 month, read-out: Loss of bioactivity (potency) on storage) was less than 6%, the solubility (Water solubility; 25° C., read-out: Solubility in water) was roughly 10000 µg/mL and the Bio-assay (Bio-assay (biopotency)) was 924 µg/mg. For the same compound, the degraded at 0.5 h (physchem; aqueous solution, pH 7.1) was 0.8%, the degraded at 1 h (physchem; aqueous solution, pH 7.1) was 5.8% and the degraded at 1.5 h (physchem; aqueous solution, pH 7.1) was 8.3%. The degraded at 2 h (physchem; aqueous solution, pH 7.1) was 15.9%, the degraded at […] (physchem; aqueous solution, pH 7.1) was 0.8% and the Bioassay (physchem; 15 minutes) was 238 mg/mL. The Bioassay (physchem; 30 minutes) was 238 mg/mL, the Bioassay (physchem; 60 minutes) was 226 mg/mL and the Bioassay (physchem; 90 minutes) was 220 mg/mL. For the same compound, the Bioassay (physchem; 2 hours) was 202 mg/mL, the Bioassay (physchem; time 0) was 240 mg/mL and the “Potency and spectrum of activity” value (bacteria) was “substantially the same potency and spectrum of activity”. The “Biological activity when suspended in water” value was “does not lose biological activity”, the Blood levels [3] was “effective blood levels” and the concentration at 0.5 h (in vivo [4]) was 46000 ng/mL. It also gave a concentration at 1 h (in vivo [4]) of 42500 ng/mL, a concentration at 2 h (in vivo [4]) of 22500 ng/mL and a concentration at 3.5 h (in vivo [4]) of 11900 ng/mL. The MIC (K. pneumoniae A9977) was 1 µg/mL, the MIC (Pr. mirabilis A9900) was 0.5 µg/mL and the MIC (Pr. morganii A15153) was 16 µg/mL. For the same compound, the MIC (Ser. marcescens A20019) was 125 µg/mL, the MIC (Ent. cloacae A9656) was greater than 125 µg/mL and the MIC (Ent. cloacae A9657) was 1 µg/mL. The MIC (Ent. cloacae A9659) was 32 µg/mL, the MIC [5] was 8 µg/mL and the MIC (E. coli Juhl A15119) was 2 µg/mL. For the same compound, the MIC (K. pneumoniae A15130) was 2 µg/mL and the MIC (Ps. aeruginosa A9843A) was greater than 125 µg/mL.
With N[C@@H](C(=O)NC1C(=O)N2C(C(=O)O)=C(CSc3cnn[nH]3)CS[C@H]12)c1ccc(O)cc1 (stereo partly drawn) [BL-S640, 7-[D-α-Amino-α-(p-hydroxyphenyl)acetamido]-3-(1,2,3-triazol-5-ylthiomethyl)-3-cephem-4-carboxylic acid] the “Degradation at alkaline pH” value [6] was “degrades very rapidly by loss of the thiol moiety”.
Compound Cc1nnc(SCC2=C(C(=O)O)N3C(=O)[C@@H](NC(=O)Cn4cnnn4)[C@H]3SC2)s1 [Cefazolin, Na salt, sodium cefazolin, reference compound] has a concentration at 5 min (in vivo [1]) of 16100 ng/mL, a concentration at 0.5 h (in vivo [1]) of 11100 ng/mL and a concentration at 1 h (in vivo [1]) of 5700 ng/mL. For the same compound, the concentration at 1.5 h (in vivo [1]) was 2900 ng/mL.
CC1=C(C(=O)O)N2C(=O)[C@@H](NC(=O)[C@H](N)c3ccccc3)[C@H]2SC1 [Cephalexin, cephalexin, reference compound] gave an MIC (S. aureus Smith A9537; [8]) of 2.5 µg/mL, an MIC (S. aureus Smith A9537; SMITHA9537, at 10^-4 dilution) of 0.6 µg/mL (≈ 1.73 µM) and an MIC (S. aureus BX1633-2 A9606; BX16332A9606, at 10^-2 dil'n) of 2 µg/mL (≈ 5.76 µM). The MIC (S. aureus BX1633-2 A9606; BX16332A9606, at 10^-3 dil'n) was 1 µg/mL (≈ 2.88 µM), the MIC (Sal.enteritidis A9531) was 2 µg/mL (≈ 5.76 µM) and the MIC (E. coli A9675) was 16 µg/mL (≈ 46.1 µM). For the same compound, the MIC (K. pneumoniae A9977) was 2 µg/mL (≈ 5.76 µM), the MIC (Pr. mirabilis A9900) was 2 µg/mL (≈ 5.76 µM) and the MIC (Pr. morganii A15153) was greater than 125 µg/mL. The MIC (Ser. marcescens A20019) was greater than 125 µg/mL, the MIC (Ent. cloacae A9656) was greater than 125 µg/mL and the MIC (Ent. cloacae A9659) was greater than 125 µg/mL. The MIC [5] was 32 µg/mL (≈ 92.1 µM), the MIC (E. coli Juhl A15119) was 4 µg/mL (≈ 11.5 µM) and the MIC (K. pneumoniae A15130) was 8 µg/mL (≈ 23 µM). It also gave an MIC (Ps. aeruginosa A9843A) greater than 125 µg/mL.
For N[C@@H](C(=O)NC1C(=O)N2C(C(=O)O)=C(CSc3cnn[nH]3)CSC12)c1ccc(O)cc1 (stereo partly drawn) [Crystalline Methanol Solvate, 7-[D-α-amino-α-(p-hydroxyphenyl)acetamido]-3-(1,2,3-triazol-5-ylthiomethyl)-3-cephem-4-carboxylic acid methanol solvate], the Bio-assay (Bio-assay (biopotency)) was 850 to 900 µg/mg.
For N[C@@H](C(=O)NC1C(=O)N2C(C(=O)O)=C(CSc3cnn[nH]3)CSC12)c1ccc(O)cc1 (some centres unmarked) [amorphous monohydrate product], the “Loss of bioactivity (potency) on storage” value ([2]; 56° C., 1 month) was 37%.
In the case of N[C@@H](C(=O)NC1C(=O)N2C(C(=O)O)=C(CSc3cnn[nH]3)CS[C@H]12)c1ccc(O)cc1.O.O (stereo partly drawn) [dihydrate, 7-[D-α-Amino-α-(p-hydroxyphenyl)-acetamido]-3-(1,2,3-triazol-5-ylthiomethyl)-3-cephem-4-carboxylic acid dihydrate], the Bio-assay (Bio-assay (biopotency)) is reported as 950 to 1000 µg/mg and the “Loss of bound water” value [7] is reported as “lose one-half molecule of bound water”.
For N[C@@H](C(=O)NC1C(=O)N2C(C(=O)O)=C(CSc3cnn[nH]3)CSC12)c1ccc(O)cc1 (stereo partly drawn) [propylene glycol solvate, 7-[D-α-amino-α-(p-hydroxyphenyl)acetamido]-3-(1,2,3-triazol-5-ylthiomethyl)-3-cephem-4-carboxylic acid propylene glycol solvate], the “Loss of bioactivity (potency) on storage” value ([2]; 56° C., 1 month) was less than 10%, the degraded at 24 h ([2]; solid, 100° C., 24 hours) was less than 6% and the degraded at 48 h ([2]; solid, 100° C., 48 hours) was less than 12%. It also gave a solubility (Water solubility; 23° C., read-out: Water solubility) of roughly 10000 µg/mL and a Bio-assay (Bio-assay (biopotency)) of 750 to 790 µg/mg.
